According to patent US11649255B2, “Indazoles as hematopoietic progenitor kinase 1 (HPK1) inhibitors and methods using same” (1st Biotherapeutics, Inc., priority 2020, dated 2023):

Target: recombinant human HPK1 (Homo sapiens (Human), UniProt Q92918)
Experiment: HPK1 kinase assay (ADP-Glo)
Format: biochemical
Details: 25 μM ATP, MBP substrate
Outline: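 Activity was read as ADP formed, detected by ADP-Glo luminescence after the reaction of 5 ng recombinant human HPK1 with MBP and ATP (stocks 0.5 μg/μl and 25 μM) for 40 min at 30 °C. Buffer was Tris pH 7.5 with MgCl2, BSA and DTT, with compound in 0.5% DMSO. IC50 came from inhibition curves.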

Sequence of recombinant human HPK1 (Q92918 whole entry): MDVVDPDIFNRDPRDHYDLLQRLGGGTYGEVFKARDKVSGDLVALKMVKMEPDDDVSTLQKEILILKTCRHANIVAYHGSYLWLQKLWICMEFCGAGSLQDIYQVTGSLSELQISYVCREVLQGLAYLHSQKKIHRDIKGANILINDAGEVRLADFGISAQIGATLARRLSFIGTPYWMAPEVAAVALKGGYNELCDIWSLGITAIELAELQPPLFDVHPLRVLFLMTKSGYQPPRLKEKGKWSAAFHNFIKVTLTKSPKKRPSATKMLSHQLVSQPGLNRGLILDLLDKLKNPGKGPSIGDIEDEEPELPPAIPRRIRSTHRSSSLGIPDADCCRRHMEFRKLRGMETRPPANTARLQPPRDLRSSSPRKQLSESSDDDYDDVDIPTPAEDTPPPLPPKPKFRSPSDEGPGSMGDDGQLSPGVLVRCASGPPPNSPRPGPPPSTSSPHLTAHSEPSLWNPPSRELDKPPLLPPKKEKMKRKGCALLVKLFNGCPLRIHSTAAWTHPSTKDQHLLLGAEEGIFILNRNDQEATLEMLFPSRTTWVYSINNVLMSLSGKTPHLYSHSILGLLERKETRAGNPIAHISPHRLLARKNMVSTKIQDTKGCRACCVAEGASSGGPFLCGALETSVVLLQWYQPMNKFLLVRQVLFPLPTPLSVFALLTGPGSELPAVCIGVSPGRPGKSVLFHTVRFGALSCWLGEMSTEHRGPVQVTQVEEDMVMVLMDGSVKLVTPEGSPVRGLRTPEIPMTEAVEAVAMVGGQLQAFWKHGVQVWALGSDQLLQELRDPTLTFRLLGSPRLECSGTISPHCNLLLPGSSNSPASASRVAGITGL

SMILES	IC50
CC1CN(c2c(F)c(Cl)c(-c3ccn4nc(NC(=O)[C@@H]5C[C@@H]5F)cc4c3)c3cn[nH]c23)C1 [Example 630, (1S,2S)-N-(5-(5-chloro-6-fluoro-7-(3-methylazetidin-1-yl)-1H-indazol-4-yl)pyrazolo[1,5-a]pyridin-2-yl)-2-fluorocyclopropane-1-carboxamide]	< 100 nM
O=C(Nc1cc2cc(-c3c(Cl)c(F)c(N4CCSCC4)c4[nH]ncc34)ccn2n1)[C@@H]1C[C@@H]1F [Example 631, (1S,2S)-N-(5-(5-chloro-6-fluoro-7-thiomorpholino-1H-indazol-4-yl)pyrazolo[1,5-a]pyridin-2-yl)-2-fluorocyclopropane-1-carboxamide]	< 100 nM
CC1(F)CN(c2c(F)c(Cl)c(-c3ccn4nc(NC(=O)[C@@H]5C[C@@H]5F)cc4c3)c3cn[nH]c23)C1 [Example 632, (1S,2S)-N-(5-(5-chloro-6-fluoro-7-(3-fluoro-3-methylazetidin-1-yl)-1H-indazol-4-yl)pyrazolo[1,5-a]pyridin-2-yl)-2-fluorocyclopropane-1-carboxamide]	< 100 nM
N#C/C=C/c1c(F)c(Cl)c(-c2ccn3nc(NC(=O)[C@@H]4C[C@@H]4F)cc3c2)c2cn[nH]c12 [Example 633, (1S,2S)-N-(5-(5-chloro-7-((E)-2-cyanovinyl)-6-fluoro-1H-indazol-4-yl)pyrazolo[1,5-a]pyridin-2-yl)-2-fluorocyclopropane-1-carboxamide]	< 100 nM
O=C(Nc1cc2cc(-c3c(Cl)c(F)c(CF)c4[nH]ncc34)ccn2n1)[C@@H]1C[C@@H]1F [Example 634, (1S,2S)-N-(5-(5-chloro-6-fluoro-7-(fluoromethyl)-1H-indazol-4-yl)pyrazolo[1,5-a]pyridin-2-yl)-2-fluorocyclopropane-1-carboxamide]	< 100 nM
O=C(Nc1cc2cc(-c3c(Cl)c(F)c(N4CC[S+]([O-])CC4)c4[nH]ncc34)ccn2n1)[C@@H]1C[C@@H]1F [Example 635, (1S,2S)-N-(5-(5-chloro-6-fluoro-7-(1-oxidothiomorpholino)-1H-indazol-4-yl)pyrazolo[1,5-a]pyridin-2-yl)-2-fluorocyclopropane-1-carboxamide]	< 100 nM
N#CCNc1c(F)c(Cl)c(-c2ccn3nc(NC(=O)[C@@H]4C[C@@H]4F)cc3c2)c2cn[nH]c12 [Example 636, (1S,2S)-N-(5-(5-chloro-7-((cyanomethyl)amino)-6-fluoro-1H-indazol-4-yl)pyrazolo[1,5-a]pyridin-2-yl)-2-fluorocyclopropane-1-carboxamide]	< 100 nM
O=C(Nc1cc2cc(-c3c(Cl)c(F)c(-n4cccc4)c4[nH]ncc34)ccn2n1)[C@@H]1C[C@@H]1F [Example 637, (1S,2S)-N-(5-(5-chloro-6-fluoro-7-(1H-pyrrol-1-yl)-1H-indazol-4-yl)pyrazolo[1,5-a]pyridin-2-yl)-2-fluorocyclopropane-1-carboxamide]	< 100 nM
CC(C)(C#N)Nc1c(F)c(Cl)c(-c2ccn3nc(NC(=O)[C@@H]4C[C@@H]4F)cc3c2)c2cn[nH]c12 [Example 638, (1S,2S)-N-(5-(5-chloro-7-((2-cyanopropan-2-yl)amino)-6-fluoro-1H-indazol-4-yl)pyrazolo[1,5-a]pyridin-2-yl)-2-fluorocyclopropane-1-carboxamide]	< 100 nM
C=C(C)c1c(F)c(Cl)c(-c2ccn3nc(NC(=O)[C@@H]4C[C@@H]4F)cc3c2)c2cn[nH]c12 [Example 639, (1S,2S)-N-(5-(5-chloro-6-fluoro-7-(prop-1-en-2-yl)-1H-indazol-4-yl)pyrazolo[1,5-a]pyridin-2-yl)-2-fluorocyclopropane-1-carboxamide]	< 100 nM
CC(C)c1c(F)c(Cl)c(-c2ccn3nc(NC(=O)[C@@H]4C[C@@H]4F)cc3c2)c2cn[nH]c12 [Example 640, (1S,2S)-N-(5-(5-chloro-6-fluoro-7-isopropyl-1H-indazol-4-yl)pyrazolo[1,5-a]pyridin-2-yl)-2-fluorocyclopropane-1-carboxamide]	< 100 nM
CC(C#N)Nc1c(F)c(Cl)c(-c2ccn3nc(NC(=O)[C@@H]4C[C@@H]4F)cc3c2)c2cn[nH]c12 (stereo partly drawn) [Example 641, (1S,2S)-N-(5-(5-chloro-7-((1-cyanoethyl)amino)-6-fluoro-1H-indazol-4-yl)pyrazolo[1,5-a]pyridin-2-yl)-2-fluorocyclopropane-1-carboxamide]	< 100 nM
O=C(Nc1cc2cc(-c3c(Cl)c(F)c(N4CCC(F)C4)c4[nH]ncc34)ccn2n1)[C@@H]1C[C@@H]1F (stereo partly drawn) [Example 642, (1S,2S)-N-(5-(5-chloro-6-fluoro-7-(3-fluoropyrrolidin-1-yl)-1H-indazol-4-yl)pyrazolo[1,5-a]pyridin-2-yl)-2-fluorocyclopropane-1-carboxamide]	< 100 nM
CC(C#N)N(C(=O)OCc1ccccc1)c1c(F)c(Cl)c(-c2ccn3nc(NC(=O)[C@@H]4C[C@@H]4F)cc3c2)c2cn[nH]c12 (stereo partly drawn) [Example 643, benzyl (5-chloro-6-fluoro-4-(2-((1S,2S)-2-fluorocyclopropane-1-carboxamido)pyrazolo[1,5-a]pyridin-5-yl)-1H-indazol-7-yl)(1-cyanoethyl)carbamate]	101 to 500 nM
Cc1cccn1-c1c(F)c(Cl)c(-c2ccn3nc(NC(=O)[C@@H]4C[C@@H]4F)cc3c2)c2cn[nH]c12 [Example 644, (1S,2S)-N-(5-(5-chloro-6-fluoro-7-(2-methyl-1H-pyrrol-1-yl)-1H-indazol-4-yl)pyrazolo[1,5-a]pyridin-2-yl)-2-fluorocyclopropane-1-carboxamide]	< 100 nM
CSc1c(F)c(Cl)c(-c2ccn3nc(NC(=O)O[C@@H]4COC[C@H]4C)cc3c2)c2cn[nH]c12 [Example 645, (3S,4R)-4-methyltetrahydrofuran-3-yl (5-(5-chloro-6-fluoro-7-(methylthio)-1H-indazol-4-yl)pyrazolo[1,5-a]pyridin-2-yl)carbamate]	< 100 nM
C[C@H]1[C@H](C(=O)Nc2cc3cc(-c4c(Cl)c(F)c(N(C)C)c5[nH]ncc45)ccn3n2)[C@H]1c1cnn(C)c1 [Example 646, (1S,2R,3S)-N-(5-(5-chloro-7-(dimethylamino)-6-fluoro-1H-indazol-4-yl)pyrazolo[1,5-a]pyridin-2-yl)-2-methyl-3-(1-methyl-1H-pyrazol-4-yl)cyclopropane-1-carboxamide]	< 100 nM
CN(C)c1c(F)c(Cl)c(-c2ccn3nc(NC(=O)NC4CC4)cc3c2)c2cn[nH]c12 [Example 647, 1-(5-(5-chloro-7-(dimethylamino)-6-fluoro-1H-indazol-4-yl)pyrazolo[1,5-a]pyridin-2-yl)-3-cyclopropylurea]	< 100 nM
C[C@@H]1[C@H](C(=O)Nc2cc3cc(-c4c(Cl)c(F)c(N(C)C)c5[nH]ncc45)ccn3n2)[C@H]1c1cnn(C)c1 [Example 648, (1S,2S,3S)-N-(5-(5-chloro-7-(dimethylamino)-6-fluoro-1H-indazol-4-yl)pyrazolo[1,5-a]pyridin-2-yl)-2-methyl-3-(1-methyl-1H-pyrazol-4-yl)cyclopropane-1-carboxamide]	< 100 nM
CN(C)C(=O)c1ccn(-c2c(F)c(Cl)c(-c3ccn4nc(NC(=O)[C@@H]5C[C@@H]5F)cc4c3)c3cn[nH]c23)c1 [Example 649, 1-(5-chloro-6-fluoro-4-(2-((1S,2S)-2-fluorocyclopropane-1-carboxamido)pyrazolo[1,5-a]pyridin-5-yl)-1H-indazol-7-yl)-N,N-dimethyl-1H-pyrrole-3-carboxamide]	< 100 nM
CC(C)Oc1c(F)c(Cl)c(-c2ccn3nc(NC(=O)[C@@H]4C[C@@H]4F)cc3c2)c2cn[nH]c12 [Example 650, (1S,2S)-N-(5-(5-chloro-6-fluoro-7-isopropoxy-1H-indazol-4-yl)pyrazolo[1,5-a]pyridin-2-yl)-2-fluorocyclopropane-1-carboxamide]	< 100 nM
O=C(Nc1cc2cc(-c3c(Cl)c(F)c(C4CCCC4)c4[nH]ncc34)ccn2n1)[C@@H]1C[C@@H]1F [Example 651, (1S,2S)-N-(5-(5-chloro-7-cyclopentyl-6-fluoro-1H-indazol-4-yl)pyrazolo[1,5-a]pyridin-2-yl)-2-fluorocyclopropane-1-carboxamide]	< 100 nM
CC(Nc1c(F)c(Cl)c(-c2ccn3nc(NC(=O)[C@@H]4C[C@@H]4F)cc3c2)c2cn[nH]c12)C1CC1 (stereo partly drawn) [Example 653, (1S,2S)-N-(5-(5-chloro-7-((1-cyclopropylethyl)amino)-6-fluoro-1H-indazol-4-yl)pyrazolo[1,5-a]pyridin-2-yl)-2-fluorocyclopropane-1-carboxamide]	< 100 nM
O=C(Nc1cc2cc(-c3c(Cl)c(F)c(NCC4CC4)c4[nH]ncc34)ccn2n1)[C@@H]1C[C@@H]1F [Example 654, (1S,2S)-N-(5-(5-chloro-7-((cyclopropylmethyl)amino)-6-fluoro-1H-indazol-4-yl)pyrazolo[1,5-a]pyridin-2-yl)-2-fluorocyclopropane-1-carboxamide]	< 100 nM
COC[C@H](C)c1c(F)c(Cl)c(-c2ccn3nc(NC(=O)[C@@H]4C[C@@H]4F)cc3c2)c2cn[nH]c12 [Example 655, (1S,2S)-N-(5-(5-chloro-6-fluoro-7-((R)-1-methoxypropan-2-yl)-1H-indazol-4-yl)pyrazolo[1,5-a]pyridin-2-yl)-2-fluorocyclopropane-1-carboxamide]	< 100 nM
COC[C@@H](C)c1c(F)c(Cl)c(-c2ccn3nc(NC(=O)[C@@H]4C[C@@H]4F)cc3c2)c2cn[nH]c12 [Example 656, (1S,2S)-N-(5-(5-chloro-6-fluoro-7-((S)-1-methoxypropan-2-yl)-1H-indazol-4-yl)pyrazolo[1,5-a]pyridin-2-yl)-2-fluorocyclopropane-1-carboxamide]	< 100 nM
CC(Nc1c(F)c(Cl)c(-c2ccn3nc(NC(=O)[C@@H]4C[C@@H]4F)cc3c2)c2cn[nH]c12)C(F)F (stereo partly drawn) [Example 657, (1S,2S)-N-(5-(5-chloro-7-((1,1-difluoropropan-2-yl)amino)-6-fluoro-1H-indazol-4-yl)pyrazolo[1,5-a]pyridin-2-yl)-2-fluorocyclopropane-1-carboxamide]	< 100 nM
